Patent US20100047321A1, “SILVER ANTIMICROBIAL COMPOSITION AND USE” (priority 2008, published 2010)

Columns and labels:
[1] = Settling test of redispersed aqueous silver chloride/gelatin dispersion (silver assay of top samples); assay type: physicochemical; conditions: redispersal and testing after storage at 40° C. for 5 days
Method: Samples were analyzed for silver content using an Automated Thioacetamide Titration system (ATT) to assay silver ion (Ag^+) present in silver containing compounds by a potentiometric titration. Silver chloride grains, which have been solubilized in a solution of thiosulfate, sodium hydroxide and gelatin, are titrated with thioacetamide to precipitate silver sulfide. The end-point of the titration is monitored potentiometrically using a silver sulfide-coated silver billet indicator electrode.
[…] To test for settling, the stirring was stopped and a 10 ml portion was removed from the top of the aliquot (time=0 sample).
Additional samples were taken in a similar manner from the unstirred aliquot at 10 minute, 30 minute, and 60 minute intervals. By comparing the theoretical silver chloride concentration (measured on a sample taken from the vigorously stirred dispersion at the conclusion of the precipitation), assuming a perfectly dispersed solution, with that determined by the ATT assay for each sample taken from the top of the aliquot, it is possible to determine the amount of AgCl product that had settled in a given time interval.
The following TABLE I contains the settling data for Invention Examples 1-7 and Comparative Examples 1-10. The settling is evaluated by comparing the silver assay results for samples taken from the top of the aliquot at time=0 or later, to the theoretical silver concentration, such that percent settle is defined by the expression (Theoretical [Ag]−Silver Assay(time))/(Theoretical [Ag]))×100.

[2] = pKa of additive

Compound | Effectiveness of additive in reducing settling [1] | pKa [2] | Additive pKa [2]
methyl-1H-benzotriazole [Me-BZT] | remarkably effective | – | –
O=[N+]([O-])c1cc(Cl)cc2[nH]nnc12 [CN-BZT, 6-chloro-4-nitro-1H-benzotriazole] | remarkably effective | 6 | –
CC(=O)Nc1cccc(-n2[nH]nnc2=S)c1 [APMT, acetamide, N-(3-(2,5-dihydro-5-thioxo-1H-tetrazol-1-yl)phenyl)-, reference compound] | ineffective | 3.3 | –
O=C1NS(=O)(=O)c2ccccc21 [Saccharin, saccharin, reference compound] | ineffective | 1.8 | 1.8
Cc1nc2ncnn2c(O)c1Br [Br-TAI, (1,2,4)triazolo(1,5-a)pyrimidin-7-ol, 6-bromo-5-methyl-] | remarkably effective | 4.8 | –

Continued, in another order:

Effectiveness of additive in reducing settling [1] | pKa [2] | Compound | Additive pKa [2]
ineffective | 9.2 | O=c1cc[nH]c(=O)[nH]1 [Uracil, uracil, reference compound] | –
remarkably effective | 5.8 | O=c1[nH][nH]c(=O)[nH]1 [Urazole, urazole] | –
remarkably effective | 6.2 | Cc1cc(O)n2ncnc2n1.[Na] [TAI, (1,2,4)triazolo(1,5-a)pyrimidin-7-ol, 5-methyl-, sodium salt] | –
ineffective | 9.4 | O=C1CCC(=O)N1 [Succinimide, succinimide, reference compound] | –
remarkably effective | 6.2 | CSc1nc2nc(C)cc(O)n2n1 [SMe-TAI, (1,2,4)triazolo(1,5-a)pyrimidin-7-ol, 5-methyl-2-(methylthio)-] | –
remarkably effective | 5.8 | O=c1[nH]c(=O)c2[nH]c(=O)[nH]c2[nH]1 [Uric acid, uric acid] | –
